According to patent US20030105595A1, “Chi square tests for gene expression” (priority 2001, published 2003):

Columns and labels:
Assay in all cases: multi-sample expression analysis, band intensity
Assay type in all cases: in vivo
Conditions in all cases: Pooled
band b1i0_51.7 = tested on: band b1i0_51.7
Text: (§1) To practice the invention, one skilled in the art obtains a source of biological samples, as well as expression information about the biological samples, i.e., expression information relative to one or more genes or polypeptides encoded therein. Data is collected for a particular phenotype appearing within a given population under study, whereby expression of that phenotype is to be determined within the biological sample under study. The phenotype is correlated to a specific genotype, which is then represented as a band with a given intentity, thus indicative of gene expression levels, and is then compared to control samples. Alternatively, the response of a gene to dosage with one or more drugs is determined by band intensity. The standard deviation from the mean (StdDev) is calculated for the control samples, and is fit to functional form in the following equation: […]
(§2) A multi-sample expression analysis was run using the program described in Example 1. For each drug run, only runs for genes producing bands with a p-value<10^−5 in at least 2 of the following 3 comparisons were selected: low dose versus vehicle, high dose versus vehicle and low dose versus high dose. […] Since clusters found using all 13K bands included some of the best 2K bands, it was concluded that no essential signal was lost (see FIGS. 3 and 4). […] A comparison using the same analytic tests on only the best 2K bands. It can be seen that the Chi Square metric provides a better distinction between low and high doses than the correlation metric, which is not able to distinguish between the low dose and the high dose (see FIG. 6). The low-dose/high dose statistical variation is more pronounced when only the best 2K bands are selected.

band b1i0_53.0 = tested on: band b1i0_53.0
Text: as §1, §2

band b1i0_54.5 = tested on: band b1i0_54.5
Text: as §1, §2

band b1i0_69.4 = tested on: band b1i0_69.4
Text: as §1, §2

band b1i0_57.4 = tested on: band b1i0_57.4
Text: as §1, §2

band b1i0_60.7 = tested on: band b1i0_60.7
Text: as §1, §2

band b1i0_62.5 = tested on: band b1i0_62.5
Text: as §1, §2

band b1i0_63.7 = tested on: band b1i0_63.7
Text: as §1, §2

CC(=O)[C@@]1(O)CC[C@H]2[C@@H]3C=C(Cl)C4=CC(=O)[C@@H]5C[C@@H]5[C@]4(C)[C@H]3CC[C@@]21C [Cyproterone]
band intensity b1i0_51.7 (band b1i0_51.7; High dose, 1d): 35.07
band intensity b1i0_51.7 (band b1i0_51.7; High dose, 3d): 32.34
band intensity b1i0_51.7 (band b1i0_51.7; High dose, 7d): 22.63
band intensity b1i0_51.7 (band b1i0_51.7; High dose, 14d): 19.9
band intensity b1i0_51.7 (band b1i0_51.7; Low dose, 1d): 19.27
band intensity b1i0_51.7 (band b1i0_51.7; Low dose, 3d): 21.87
band intensity b1i0_51.7 (band b1i0_51.7; Low dose, 7d): 12.77
band intensity b1i0_53.0 (band b1i0_53.0; High dose, 1d): 93.39
band intensity b1i0_53.0 (band b1i0_53.0; High dose, 3d): 99.72
band intensity b1i0_53.0 (band b1i0_53.0; High dose, 7d): 99.01
band intensity b1i0_53.0 (band b1i0_53.0; High dose, 14d): 40.97
band intensity b1i0_53.0 (band b1i0_53.0; Low dose, 1d): 111.6
band intensity b1i0_53.0 (band b1i0_53.0; Low dose, 3d): 99.85
band intensity b1i0_53.0 (band b1i0_53.0; Low dose, 7d): 99.01
band intensity b1i0_54.5 (band b1i0_54.5; High dose, 1d): 98.48
band intensity b1i0_54.5 (band b1i0_54.5; High dose, 3d): 80.83
band intensity b1i0_54.5 (band b1i0_54.5; High dose, 7d): 81.21
band intensity b1i0_54.5 (band b1i0_54.5; High dose, 14d): 69.78
band intensity b1i0_54.5 (band b1i0_54.5; Low dose, 1d): 94.41
band intensity b1i0_54.5 (band b1i0_54.5; Low dose, 3d): 93.73
band intensity b1i0_54.5 (band b1i0_54.5; Low dose, 7d): 98.2
band intensity b1i0_69.4 (band b1i0_69.4; High dose, 1d): 254.9
band intensity b1i0_69.4 (band b1i0_69.4; High dose, 3d): 250.7
band intensity b1i0_69.4 (band b1i0_69.4; High dose, 7d): 317.9
band intensity b1i0_69.4 (band b1i0_69.4; High dose, 14d): 528.3
band intensity b1i0_69.4 (band b1i0_69.4; Low dose, 1d): 243.2
band intensity b1i0_69.4 (band b1i0_69.4; Low dose, 3d): 270.7
band intensity b1i0_69.4 (band b1i0_69.4; Low dose, 7d): 326.3
band intensity b1i0_57.4 (band b1i0_57.4; High dose, 1d): 1105
band intensity b1i0_57.4 (band b1i0_57.4; High dose, 3d): 1021
band intensity b1i0_57.4 (band b1i0_57.4; High dose, 7d): 1105
band intensity b1i0_57.4 (band b1i0_57.4; High dose, 14d): 775.5
band intensity b1i0_57.4 (band b1i0_57.4; Low dose, 1d): 1285
band intensity b1i0_57.4 (band b1i0_57.4; Low dose, 3d): 1338
band intensity b1i0_57.4 (band b1i0_57.4; Low dose, 7d): 1437
band intensity b1i0_60.7 (band b1i0_60.7; High dose, 1d): 53.9
band intensity b1i0_60.7 (band b1i0_60.7; High dose, 3d): 46.42
band intensity b1i0_60.7 (band b1i0_60.7; High dose, 7d): 73.61
band intensity b1i0_60.7 (band b1i0_60.7; High dose, 14d): 57.48
band intensity b1i0_60.7 (band b1i0_60.7; Low dose, 1d): 76.15
band intensity b1i0_60.7 (band b1i0_60.7; Low dose, 3d): 72.42
band intensity b1i0_60.7 (band b1i0_60.7; Low dose, 7d): 80.22
band intensity b1i0_62.5 (band b1i0_62.5; High dose, 1d): 49.19
band intensity b1i0_62.5 (band b1i0_62.5; High dose, 3d): 64.93
band intensity b1i0_62.5 (band b1i0_62.5; High dose, 7d): 71.82
band intensity b1i0_62.5 (band b1i0_62.5; High dose, 14d): 148.3
band intensity b1i0_62.5 (band b1i0_62.5; Low dose, 1d): 62.41
band intensity b1i0_62.5 (band b1i0_62.5; Low dose, 3d): 59.37
band intensity b1i0_62.5 (band b1i0_62.5; Low dose, 7d): 70.85
band intensity b1i0_63.7 (band b1i0_63.7; High dose, 1d): 51.36
band intensity b1i0_63.7 (band b1i0_63.7; High dose, 3d): 111.8
band intensity b1i0_63.7 (band b1i0_63.7; High dose, 7d): 154.7
band intensity b1i0_63.7 (band b1i0_63.7; High dose, 14d): 18.52
band intensity b1i0_63.7 (band b1i0_63.7; Low dose, 1d): 68.2
band intensity b1i0_63.7 (band b1i0_63.7; Low dose, 3d): 110.4
band intensity b1i0_63.7 (band b1i0_63.7; Low dose, 7d): 146

Nc1ccc(Cc2ccc(N)cc2)cc1 [Methylenedianiline]
band intensity b1i0_51.7 (band b1i0_51.7; High dose, 1d): 23.55
band intensity b1i0_51.7 (band b1i0_51.7; High dose, 3d): 27.88
band intensity b1i0_51.7 (band b1i0_51.7; High dose, 7d): 23.35
band intensity b1i0_51.7 (band b1i0_51.7; High dose, 14d): 33.18
band intensity b1i0_51.7 (band b1i0_51.7; Low dose, 1d): 22.28
band intensity b1i0_51.7 (band b1i0_51.7; Low dose, 3d): 27.01
band intensity b1i0_51.7 (band b1i0_51.7; Low dose, 7d): 21.37
band intensity b1i0_51.7 (band b1i0_51.7; Low dose, 14d): 71.33
band intensity b1i0_53.0 (band b1i0_53.0; High dose, 1d): 101.1
band intensity b1i0_53.0 (band b1i0_53.0; High dose, 3d): 98.11
band intensity b1i0_53.0 (band b1i0_53.0; High dose, 7d): 113.8
band intensity b1i0_53.0 (band b1i0_53.0; High dose, 14d): 60.92
band intensity b1i0_53.0 (band b1i0_53.0; Low dose, 1d): 103.4
band intensity b1i0_53.0 (band b1i0_53.0; Low dose, 3d): 101.1
band intensity b1i0_53.0 (band b1i0_53.0; Low dose, 7d): 111.5
band intensity b1i0_53.0 (band b1i0_53.0; Low dose, 14d): 55.87
band intensity b1i0_54.5 (band b1i0_54.5; High dose, 1d): 104.9
band intensity b1i0_54.5 (band b1i0_54.5; High dose, 3d): 106
band intensity b1i0_54.5 (band b1i0_54.5; High dose, 7d): 82.18
band intensity b1i0_54.5 (band b1i0_54.5; High dose, 14d): 51.09
band intensity b1i0_54.5 (band b1i0_54.5; Low dose, 1d): 123.7
band intensity b1i0_54.5 (band b1i0_54.5; Low dose, 3d): 111.4
band intensity b1i0_54.5 (band b1i0_54.5; Low dose, 7d): 86.49
band intensity b1i0_54.5 (band b1i0_54.5; Low dose, 14d): 62.55
band intensity b1i0_69.4 (band b1i0_69.4; High dose, 1d): 262.2
band intensity b1i0_69.4 (band b1i0_69.4; High dose, 3d): 329.9
band intensity b1i0_69.4 (band b1i0_69.4; High dose, 7d): 290.2061
band intensity b1i0_69.4 (band b1i0_69.4; High dose, 14d): 512.9
band intensity b1i0_69.4 (band b1i0_69.4; Low dose, 1d): 349.4
band intensity b1i0_69.4 (band b1i0_69.4; Low dose, 3d): 349.3
band intensity b1i0_69.4 (band b1i0_69.4; Low dose, 7d): 303.1
band intensity b1i0_69.4 (band b1i0_69.4; Low dose, 14d): 714.8
band intensity b1i0_57.4 (band b1i0_57.4; High dose, 1d): 1230
band intensity b1i0_57.4 (band b1i0_57.4; High dose, 3d): 1407
band intensity b1i0_57.4 (band b1i0_57.4; High dose, 7d): 1184
band intensity b1i0_57.4 (band b1i0_57.4; High dose, 14d): 455.9
band intensity b1i0_57.4 (band b1i0_57.4; Low dose, 1d): 1376
band intensity b1i0_57.4 (band b1i0_57.4; Low dose, 3d): 1433
band intensity b1i0_57.4 (band b1i0_57.4; Low dose, 7d): 1280
band intensity b1i0_57.4 (band b1i0_57.4; Low dose, 14d): 789.2
band intensity b1i0_60.7 (band b1i0_60.7; High dose, 1d): 67.13
band intensity b1i0_60.7 (band b1i0_60.7; High dose, 3d): 85.72
band intensity b1i0_60.7 (band b1i0_60.7; High dose, 7d): 82.44
band intensity b1i0_60.7 (band b1i0_60.7; High dose, 14d): 158.3
band intensity b1i0_60.7 (band b1i0_60.7; Low dose, 1d): 66.66
band intensity b1i0_60.7 (band b1i0_60.7; Low dose, 3d): 78.99
band intensity b1i0_60.7 (band b1i0_60.7; Low dose, 7d): 79.32
band intensity b1i0_60.7 (band b1i0_60.7; Low dose, 14d): 139.6
band intensity b1i0_62.5 (band b1i0_62.5; High dose, 1d): 59.42
band intensity b1i0_62.5 (band b1i0_62.5; High dose, 3d): 70.64
band intensity b1i0_62.5 (band b1i0_62.5; High dose, 7d): 71.55
band intensity b1i0_62.5 (band b1i0_62.5; High dose, 14d): 185.7
band intensity b1i0_62.5 (band b1i0_62.5; Low dose, 1d): 63.43
band intensity b1i0_62.5 (band b1i0_62.5; Low dose, 3d): 69.92
band intensity b1i0_62.5 (band b1i0_62.5; Low dose, 7d): 86.01
band intensity b1i0_62.5 (band b1i0_62.5; Low dose, 14d): 207.6
band intensity b1i0_63.7 (band b1i0_63.7; High dose, 1d): 85.1
band intensity b1i0_63.7 (band b1i0_63.7; High dose, 3d): 153.8
band intensity b1i0_63.7 (band b1i0_63.7; High dose, 7d): 144.3
band intensity b1i0_63.7 (band b1i0_63.7; High dose, 14d): 2.073
band intensity b1i0_63.7 (band b1i0_63.7; Low dose, 1d): 24.89
band intensity b1i0_63.7 (band b1i0_63.7; Low dose, 3d): 84.1
band intensity b1i0_63.7 (band b1i0_63.7; Low dose, 7d): 287.2
band intensity b1i0_63.7 (band b1i0_63.7; Low dose, 14d): 0.3527
